{
  "source": "patent EP0200406A2",
  "about": "“Novel amino acid derivatives” (Kissei Pharmaceutical Co Ltd, priority 1985, dated 1986)",
  "key": {"renin [1]": {"target": "T1, renin (Homo sapiens, UniProt P00797)", "T1 sequence (P00797 67-406)": "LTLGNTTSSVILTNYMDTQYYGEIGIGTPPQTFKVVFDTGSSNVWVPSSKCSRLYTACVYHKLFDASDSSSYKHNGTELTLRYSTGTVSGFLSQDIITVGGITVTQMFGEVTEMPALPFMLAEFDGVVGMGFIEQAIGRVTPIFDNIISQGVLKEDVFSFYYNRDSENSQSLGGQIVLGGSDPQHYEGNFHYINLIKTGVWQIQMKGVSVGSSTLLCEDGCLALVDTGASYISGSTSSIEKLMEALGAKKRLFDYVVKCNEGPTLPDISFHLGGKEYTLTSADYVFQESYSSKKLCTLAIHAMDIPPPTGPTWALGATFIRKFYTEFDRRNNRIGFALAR", "assay": "Human renin-sheep renin substrate reaction system in vitro", "assay_type": "biochemical", "details": "purified human renin, semipurified sheep renin substrate, pH 7.4, 15 minutes at 37°C, angiotensin I by radioimmunoassay; read-out: IC50 molar concentration", "description": "To a mixture containing 200 µl of a 125 mM pyrophosphate buffer (pH 7.4), 25 µl of a 20 mM aqueous solution of L-phenylalanyl-L-alanyl-L-prolin as an angiotensin cnverting enzyme inhibitor, 50 µ01 of semipurified sheep renin substrate (2000 ng angiotensin I/ml), 50 µl of dimethyl sulfoxide solution of an amino acid compound of the present invention and 150 µl of deionized water was added 25 µl of purified human renin (20-30 ng angiotensin I/ml/hr. The mixture was incubated for 15 minutes on a water bath at 37°C, and the reaction mixture was allowed to stand for 5 minutes on a water bath at 100°C to stop the reaction. After cooling, 200 µl of the solution were taken up and the amount of angiotensin I produced by the addition of renin was determined by radiommunoassay. The inhibitory effect was calculated by the following equation.\nAs a control, the same procedure as above was carried out by using 50 µl of dimethyl sulfoxide alone in place of the 50 µl of dimethyl sulfoxide solution containing an amino acid compound of the present invention."}, "renin [2]": {"target": "T1, renin", "assay": "Renin inhibitory effect in a human high renin plasma", "assay_type": "biochemical", "design": "from tissue; host or cells: human high renin plasma", "details": "pH 7, 60 minutes at 37°C, angiotensin I by radioimmunoassay, read-out: IC50 (molar concentration)", "description": "A mixture of 350 µl of a 0.5 M phosphate buffer containing 14 mM EDTA 2Na and a 0.3% neomycin sulfate, which was adjusted to the pH of 7, 50 µl of a 20 mM an aqueous solution of L-phenylalanyl-L-alanyl-L-prolin as an angiotensin converting enzyme inhibitor and 100 µl of dimethyl sulfoxide solution containing an amino acid compound of the present invention was added to 500 µl of human high renin plasma, and 200 µl of the mixture was incubated at 4°C in an ice bath, and remaining mixture (800 µl) was incubated for 60 minutes at 37°C in a water bath. A 200 µl sample was withdrawn from the incubated mixture, chilled immediately in an ice bath, and the amount (A) of angiotensin I produced was determined by radioimmunoassay.\nAlso, the amount (B) of angiotensin I produced in the incubated mixture at 4°C in an ice bath was determined by radioimmunoassy.\nAs a control, the same procedure as above was carried out by using 100 µl of dimethyl sulfoxide alone in place of the 100µl of dimethyl sulfoxide solution containing an amino acid compound of the present invention.\nThe renin inhibitory effect in human plasa was calculated by taking the amount of angiotensin I - (A) from the amount of angiotensin I (B). The inhibotory effect was calculated by the following equation. [formula]"}, "common marmoset": {"system": "common marmoset", "assay": "Hypotensive effect in marmoset", "assay_type": "in vivo", "details": "orally 30 mg/kg, conscious male marmosets in high renin state (furosemide), Control 103.5", "description": "The experiment was carrried out by using common marmoset as described in K.G. Hofbauer et al., Clinical and Experimental hypertension, Vol. A5, Nos. 7 & 8 (1983), pages 1237-1247.\nFurosemide was orally administered three times to common marmoset at 15 mg per kilogram per day every other day to create a high renin state. Blood pressure of consious marmoset was measured 2 days after the last administration of furosemide.\nThree consious male marmosets marmosets weighing 305-345 g were fixed. Mean blood pressure at tail artery was recorded on pretismograph instrument. The amino acid compound, of the present invention isopropyl (2RS. 3S)-3-{N-[2-(1-naphthylmethyl)-3-(morpholinocarbonylpropionyl]-L-histidyl}amino-2-hydroxy-5-methylhexanoate and administered orally at 30 mg/kg by using a catheter. The results obtained are shown below."}},
  "note": "pIC50: −log10 of the molar value.",
  "data": [
    {"molecule": "COC(=O)C(O)[C@H](CC(C)C)NC(=O)[C@H](Cc1c[nH]cn1)NC(=O)C(CC(=O)N1CCCC1)Cc1cccc2ccccc12", "note": "(stereo partly drawn) [Example 8, Methyl (2RS, 3S)-3-{N-[2-(1-naphthylmethyl)-3-(pyrroiidinocarbonyl)propionyl]-L-histidyl}amino-2-hydroxy-5-methylhexanoate]", "values": [
      {"measurement": "pIC50", "setting": "renin [1]", "result": 7.16},
      {"measurement": "pIC50", "setting": "renin [2]", "result": 7.21}
    ]},
    {"molecule": "CC(C)CCNC(=O)C[C@H](O)[C@H](CC(C)C)NC(=O)[C@H](Cc1c[nH]cn1)NC(=O)C(CC(=O)N1CCOCC1)Cc1cccc2ccccc12", "note": "(stereo partly drawn) [Example 13, N-[2-(1-Naphthyfmethyl)-3-(morpholinocarbouyl)-propionyl]-L-histidyl-statylisoamylamide]", "values": [
      {"measurement": "pIC50", "setting": "renin [1]", "result": 7.44}
    ]},
    {"molecule": "CNC(=O)C(O)[C@H](CC(C)C)NC(=O)[C@H](Cc1c[nH]cn1)NC(=O)C(CC(=O)N1CCCCC1)Cc1cccc2ccccc12", "note": "(mixture of isomers) [Example 7, (2RS, 3S)-3-{N-[2-(1-Naphthylmethyl)-3-(piperidinocarbonyl)propionyl]-L-histidyl}amino-2-hydroxy-5-methylhexanoylmethylamide]", "values": [
      {"measurement": "pIC50", "setting": "renin [1]", "result": 6.16},
      {"measurement": "pIC50", "setting": "renin [2]", "result": 5.28}
    ]},
    {"molecule": "CNC(=O)C(O)[C@H](CC(C)C)NC(=O)[C@H](Cc1c[nH]cn1)NC(=O)C(CC(=O)N1CCOCC1)Cc1cccc2ccccc12", "note": "(mixture of isomers) [Example 3, (2RS, 3S)-3-{N-[2-(1-Naphthylmethyl)-3-(morpholinocarbonyl)propionyl]-L-histidyl}amino-2-hydroxy-5-methylhexanoylmethylamide]", "values": [
      {"measurement": "pIC50", "setting": "renin [1]", "result": 6.47}
    ]},
    {"molecule": "COC(=O)C[C@H](O)[C@H](CC(C)C)NC(=O)[C@H](Cc1c[nH]cn1)NC(=O)C(CC(=O)N1CCOCC1)Cc1cccc2ccccc12", "note": "(stereo partly drawn) [Example 11, Methyl N-[2-(1-naphthylmethyl)-3-(morpholinocarbonyl)propionyl]-L-histidyistatinate]", "values": [
      {"measurement": "pIC50", "setting": "renin [1]", "result": 6.68}
    ]},
    {"molecule": "CC(C)C[C@H](NC(=O)[C@H](Cc1c[nH]cn1)NC(=O)C(CC(=O)N1CCCCC1)Cc1cccc2ccccc12)C(O)C(=O)OC(C)C", "note": "(stereo partly drawn) [Example 5, lsopropyl (2RS, 3S)-3-{N-[2-(1-Naphthytmethyl)-3-(piperidinocarbonyl)propionyl}-t-hisfidyl)amino-2-hydroxy-5-methylhexanoate]", "values": [
      {"measurement": "pIC50", "setting": "renin [1]", "result": 7.55},
      {"measurement": "pIC50", "setting": "renin [2]", "result": 7.06}
    ]},
    {"molecule": "CC(C)C[C@H](NC(=O)[C@H](Cc1cnc[nH]1)NC(=O)C(CC(=O)N1CCOCC1)Cc1cccc2ccccc12)C(O)C(=O)OC(C)C", "note": "(stereo partly drawn) [Example 1]", "values": [
      {"measurement": "Mean blood pressure", "setting": "common marmoset; 0.5 hours after administration", "result": 88.7, "unit": "mmHg"},
      {"measurement": "Mean blood pressure", "setting": "common marmoset; 1 hour after administration", "result": 85.6, "unit": "mmHg"},
      {"measurement": "Mean blood pressure", "setting": "common marmoset; 2 hours after administration", "result": 87.2, "unit": "mmHg"},
      {"measurement": "Mean blood pressure", "setting": "common marmoset; 3 hours after administration", "result": 89.3, "unit": "mmHg"},
      {"measurement": "Mean blood pressure", "setting": "common marmoset; 5 hours after administration", "result": 92.4, "unit": "mmHg"},
      {"measurement": "Mean blood pressure", "setting": "common marmoset; 7 hours after administration", "result": 92.3, "unit": "mmHg"},
      {"measurement": "Mean blood pressure", "setting": "common marmoset; 9 hours after administration", "result": 92.8, "unit": "mmHg"},
      {"measurement": "Mean blood pressure", "setting": "common marmoset; 24 hours after administration", "result": 101.9, "unit": "mmHg"}
    ]},
    {"molecule": "CCNC(=O)CC(Cc1cccc2ccccc12)C(=O)N[C@@H](Cc1c[nH]cn1)C(=O)N[C@@H](CC(C)C)C(O)C(=O)OC", "note": "(mixture of isomers) [Example 10, Methyl (2RS, 3S)-3-{N-[2-(1-naphthylmethyl)-3-(ethylcarbamoyl)propionyl]-L-histidyl}amino-2-hydroxy-5-methylhexanoate]", "values": [
      {"measurement": "pIC50", "setting": "renin [1]", "result": 6.20}
    ]}
  ]
}
